Source: the supplement of paper PMC10307832

Tests used:
Assay in all cases: relative viability (nuclei count vs DMSO), 5 days (fraction); higher = more cells survive
201T = system: 201T
Summary of the method: (§1)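 Cells from lung cancer lines were seeded into 1536-well plates and, one day later, dosed by pin tool. Treatments were either a single drug or a fixed dose of an anchor drug with five library-drug doses (not always all listed) in √10 steps. After 5 days, nuclei were stained in a one-step fixation (final 0.05% Triton X-100, 1% formaldehyde, 1 ug/ml Hoechst) and counted on 4× images, and relative viability is the treated-to-vehicle nuclei ratio, as the median of duplicate plates.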

A-427 = system: A-427
Summary of the method: as §1

ABC-1 = system: ABC-1
Summary of the method: as §1

BEN = system: BEN
Summary of the method: as §1

CAL-12T = system: CAL-12T
Summary of the method: as §1

H3255 = system: H3255
Summary of the method: as §1

LC-2-ad = system: LC-2-ad
Summary of the method: as §1

LCLC-97TM1 = system: LCLC-97TM1
Summary of the method: as §1

NCI-H1650 = system: NCI-H1650
Summary of the method: as §1

NCI-H1651 = system: NCI-H1651
Summary of the method: as §1

NCI-H1792 = system: NCI-H1792
Summary of the method: as §1

NCI-H1915 = system: NCI-H1915
Summary of the method: as §1

NCI-H1944 = system: NCI-H1944
Summary of the method: as §1

NCI-H2023 = system: NCI-H2023
Summary of the method: as §1

NCI-H2087 = system: NCI-H2087
Summary of the method: as §1

NCI-H441 = system: NCI-H441
Summary of the method: as §1

NCI-H460 = system: NCI-H460
Summary of the method: as §1

NCI-H520 = system: NCI-H520
Summary of the method: as §1

NCI-H596 = system: NCI-H596
Summary of the method: as §1

NCI-H650 = system: NCI-H650
Summary of the method: as §1

NCI-H661 = system: NCI-H661
Summary of the method: as §1

NCI-H727 = system: NCI-H727
Summary of the method: as §1

PC-3 [JPC-3] = system: PC-3 [JPC-3]
Summary of the method: as §1

C=C1C(=O)O[C@@H](CCCCCCCC)[C@@H]1C(=O)O [C-75] + CS(=O)(=O)N1CCN(Cc2cc3nc(-c4cccc5[nH]ncc45)nc(N4CCOCC4)c3s2)CC1 [Pictilisib] (partner 1 µM)
relative viability (201T; first compound 0.08 µM): 0.697 | relative viability (201T; first compound 0.253 µM): 0.782 | relative viability (201T; first compound 0.8 µM): 0.628 | relative viability (201T; first compound 2.53 µM): 0.673 | relative viability (201T; first compound 8 µM): 0.719 | relative viability (A-427; first compound 0.08 µM): 0.786 | relative viability (A-427; first compound 0.253 µM): 0.75 | relative viability (A-427; first compound 0.8 µM): 0.626 | relative viability (A-427; first compound 2.53 µM): 0.62 | relative viability (A-427; first compound 8 µM): 0.718 | relative viability (ABC-1; first compound 0.08 µM): 0.733 | relative viability (ABC-1; first compound 0.253 µM): 0.87 | relative viability (ABC-1; first compound 0.8 µM): 0.659 | relative viability (ABC-1; first compound 2.53 µM): 0.646 | relative viability (ABC-1; first compound 8 µM): 0.469 | relative viability (BEN; first compound 0.08 µM): 0.541 | relative viability (BEN; first compound 0.253 µM): 0.651 | relative viability (BEN; first compound 0.8 µM): 0.538 | relative viability (BEN; first compound 2.53 µM): 0.553 | relative viability (BEN; first compound 8 µM): 0.443 | relative viability (CAL-12T; first compound 0.08 µM): 0.58 | relative viability (CAL-12T; first compound 0.253 µM): 0.624 | relative viability (CAL-12T; first compound 0.8 µM): 0.306 | relative viability (CAL-12T; first compound 2.53 µM): 0.292 | relative viability (CAL-12T; first compound 8 µM): 0.486 | relative viability (H3255; first compound 0.08 µM): 0.464 | relative viability (H3255; first compound 0.253 µM): 0.572 | relative viability (H3255; first compound 0.8 µM): 0.458 | relative viability (H3255; first compound 2.53 µM): 0.494 | relative viability (H3255; first compound 8 µM): 0.447 | relative viability (LC-2-ad; first compound 0.08 µM): 0.556 | relative viability (LC-2-ad; first compound 0.253 µM): 0.528 | relative viability (LC-2-ad; first compound 0.8 µM): 0.457 | relative viability (LC-2-ad; first compound 8 µM): 0.442 | relative viability (LCLC-97TM1; first compound 0.08 µM): 0.234 | relative viability (LCLC-97TM1; first compound 0.253 µM): 0.215 | relative viability (LCLC-97TM1; first compound 0.8 µM): 0.265 | relative viability (LCLC-97TM1; first compound 2.53 µM): 0.187 | relative viability (LCLC-97TM1; first compound 8 µM): 0.18 | relative viability (NCI-H1650; first compound 0.08 µM): 0.632 | relative viability (NCI-H1650; first compound 0.253 µM): 0.691 | relative viability (NCI-H1650; first compound 0.8 µM): 0.521 | relative viability (NCI-H1650; first compound 2.53 µM): 0.474 | relative viability (NCI-H1650; first compound 8 µM): 0.619 | relative viability (NCI-H1651; first compound 0.08 µM): 0.466 | relative viability (NCI-H1651; first compound 0.253 µM): 0.633 | relative viability (NCI-H1651; first compound 0.8 µM): 0.499 | relative viability (NCI-H1651; first compound 2.53 µM): 1.04 | relative viability (NCI-H1651; first compound 8 µM): 0.501 | relative viability (NCI-H1792; first compound 0.08 µM): 0.312 | relative viability (NCI-H1792; first compound 0.253 µM): 0.268 | relative viability (NCI-H1792; first compound 0.8 µM): 0.293 | relative viability (NCI-H1792; first compound 2.53 µM): 0.261 | relative viability (NCI-H1792; first compound 8 µM): 0.343 | relative viability (NCI-H1915; first compound 0.08 µM): 0.953 | relative viability (NCI-H1915; first compound 0.253 µM): 1.08 | relative viability (NCI-H1915; first compound 0.8 µM): 0.857 | relative viability (NCI-H1915; first compound 2.53 µM): 0.828 | relative viability (NCI-H1915; first compound 8 µM): 0.763 | relative viability (NCI-H1944; first compound 0.08 µM): 0.346 | relative viability (NCI-H1944; first compound 0.253 µM): 0.34 | relative viability (NCI-H1944; first compound 0.8 µM): 0.33 | relative viability (NCI-H1944; first compound 8 µM): 0.342 | relative viability (NCI-H2023; first compound 0.08 µM): 0.239 | relative viability (NCI-H2023; first compound 0.253 µM): 0.29 | relative viability (NCI-H2023; first compound 0.8 µM): 0.203 | relative viability (NCI-H2023; first compound 2.53 µM): 0.311 | relative viability (NCI-H2023; first compound 8 µM): 0.262 | relative viability (NCI-H2087; first compound 0.08 µM): 0.853 | relative viability (NCI-H2087; first compound 0.253 µM): 0.844 | relative viability (NCI-H2087; first compound 0.8 µM): 0.733 | relative viability (NCI-H2087; first compound 2.53 µM): 0.428 | relative viability (NCI-H2087; first compound 8 µM): 0.859 | relative viability (NCI-H441; first compound 0.08 µM): 0.473 | relative viability (NCI-H441; first compound 0.253 µM): 0.536 | relative viability (NCI-H441; first compound 0.8 µM): 0.403 | relative viability (NCI-H441; first compound 2.53 µM): 0.418 | relative viability (NCI-H441; first compound 8 µM): 0.38 | relative viability (NCI-H460; first compound 0.08 µM): 0.396 | relative viability (NCI-H460; first compound 0.253 µM): 0.472 | relative viability (NCI-H460; first compound 0.8 µM): 0.303 | relative viability (NCI-H460; first compound 8 µM): 0.348 | relative viability (NCI-H520; first compound 0.08 µM): 0.24 | relative viability (NCI-H520; first compound 0.253 µM): 0.357 | relative viability (NCI-H520; first compound 0.8 µM): 0.309 | relative viability (NCI-H520; first compound 2.53 µM): 0.224 | relative viability (NCI-H520; first compound 8 µM): 0.297 | relative viability (NCI-H596; first compound 0.08 µM): 0.406 | relative viability (NCI-H596; first compound 0.253 µM): 0.39 | relative viability (NCI-H596; first compound 0.8 µM): 0.229 | relative viability (NCI-H596; first compound 2.53 µM): 0.39 | relative viability (NCI-H596; first compound 8 µM): 0.438 | relative viability (NCI-H650; first compound 0.08 µM): 0.864 | relative viability (NCI-H650; first compound 0.253 µM): 0.825 | relative viability (NCI-H650; first compound 0.8 µM): 0.801 | relative viability (NCI-H650; first compound 2.53 µM): 0.815 | relative viability (NCI-H650; first compound 8 µM): 0.883 | relative viability (NCI-H661; first compound 0.08 µM): 0.398 | relative viability (NCI-H661; first compound 0.253 µM): 0.493 | relative viability (NCI-H661; first compound 0.8 µM): 0.355 | relative viability (NCI-H661; first compound 2.53 µM): 0.315 | relative viability (NCI-H661; first compound 8 µM): 0.382 | relative viability (NCI-H727; first compound 0.08 µM): 0.436 | relative viability (NCI-H727; first compound 0.253 µM): 0.59 | relative viability (NCI-H727; first compound 0.8 µM): 0.339 | relative viability (NCI-H727; first compound 2.53 µM): 0.362 | relative viability (NCI-H727; first compound 8 µM): 0.577 | relative viability (PC-3 [JPC-3]; first compound 0.08 µM): 0.817 | relative viability (PC-3 [JPC-3]; first compound 0.253 µM): 0.637 | relative viability (PC-3 [JPC-3]; first compound 0.8 µM): 0.674 | relative viability (PC-3 [JPC-3]; first compound 2.53 µM): 0.822 | relative viability (PC-3 [JPC-3]; first compound 8 µM): 0.876
